The values below come from ChEMBL document CHEMBL3045058, “Comparative QSAR and pharmacophore modeling of substituted 2-[2-(dimethylamino) ethyl]-1, 2-dihydro-3H-dibenz[de,h]isoquinoline-1,3-diones derivatives as anti-tumor activity” (Med Chem Res, 2013).

Experiment [1] can be described thus: Cytotoxicity against human Ovarian cancer cells. The settings on record: Cancer cell lines. Format: functional, cell-based.
A short description of experiment [2]: Cytotoxicity against human melanoma cells. The format is functional, cell-based. Particulars: Melanoma cell.

The structures appear in SMILES notation.

Usually pIC50 stands for −log10 of the IC50, conventionally taken in molar units. High values mean a small IC50, low ones a large IC50. On to `CN(C)CCNc1ccc2cc3ccccc3c3c2c1C(=O)N(CCN(C)C)C3=O`, for which the pIC50 was 6.24 in experiment [1] and 6.53 in experiment [2].

With `CN(C)CCN1C(=O)c2cccc3cc4ccccc4c(c23)C1=O` [AZONAFIDE], the figures for the pIC50 in experiment [1] and in experiment [2] were 7.24 and 7.15, respectively.

Take `CN(C)CCN1C(=O)c2cccc3cc4ccc(Cl)cc4c(c23)C1=O`: the pIC50 was found to be 7.11 in experiment [1] and 7.19 in experiment [2].

With `COc1ccc2cc3cccc4c3c(c2c1)C(=O)N(CCN(C)C)C4=O`, the pIC50 in experiment [1] amounted to 7.11; in experiment [2], 7.28.

With `CN(C)CCN1C(=O)c2cccc3cc4c(O)cccc4c(c23)C1=O`, the figures for the pIC50 in experiment [1] and in experiment [2] were 6.67 and 6.57, respectively.

As for `CC(=O)Nc1ccc2cc3ccccc3c3c2c1C(=O)N(CCN(C)C)C3=O`, the figures for the negative logarithm of the IC50 (pIC50) in experiment [1] and in experiment [2] were 6.21 and 6.01, respectively.

As to `CN(C)CCN1C(=O)c2cccc3cc4cccc(O)c4c(c23)C1=O`, the pIC50 was determined as 5.72 in experiment [1] and 6.27 in experiment [2].

Regarding `CN(C)CCN1C(=O)c2c(N)ccc3cc4ccccc4c(c23)C1=O`, the negative logarithm of the IC50 (pIC50) worked out at 7.92 in experiment [1] and 8.02 in experiment [2].

In the case of `CN(C)CCN1C(=O)c2cccc3cc4ccc(C#N)cc4c(c23)C1=O`, the values for the pIC50 in experiment [1] and in experiment [2] were 7.92 and 7.96, respectively.

Consider `CN(C)CCN1C(=O)c2cccc3cc4c(I)cccc4c(c23)C1=O`, for which the pIC50 in experiment [1] stood at 5.68; in experiment [2] it was 6.08.

With `CN(C)CCN1C(=O)c2cccc3cc4ccc(O)cc4c(c23)C1=O`, the pIC50 worked out at 5.72 in experiment [1] and 5.92 in experiment [2].

For `COc1ccc2c3c4c(cccc4cc2c1)C(=O)N(CCN(C)C)C3=O`, the pIC50 in experiment [1] is 6.27; in experiment [2], 6.79.

Regarding `COc1cccc2c3c4c(cccc4cc12)C(=O)N(CCN(C)C)C3=O`, the pIC50 in experiment [1] and in experiment [2] was 7.28 in each case.

As for `CN(C)CCN1C(=O)c2cccc3cc4c([N+](=O)[O-])cccc4c(c23)C1=O`, the pIC50 in experiment [1] amounted to 7.3; in experiment [2] it was 7.42.

Take `CC(=O)Nc1cccc2cc3cccc4c3c(c12)C(=O)N(CCN(C)C)C4=O`: the pIC50 in experiment [1] and in experiment [2] was 5.61 throughout.

With `CN(C)CCN1C(=O)c2c(NC(=O)C(C)(C)C)ccc3cc4ccccc4c(c23)C1=O`, the pIC50 in experiment [1] was found to be 6.18; in experiment [2] it was 5.06.

For the compound `CN(C)CCN1C(=O)c2cccc3cc4cc(Cl)ccc4c(c23)C1=O`, the pIC50 in experiment [1] was determined as 6.64; in experiment [2], 7.05.

As for `CC(C)C(=O)Nc1ccc2cc3cccc4c3c(c2c1)C(=O)N(CCN(C)C)C4=O`, the values for the pIC50 in experiment [1] and in experiment [2] were 6.48 and 6.26, respectively.

With `CN(C)CCN1C(=O)c2cccc3cc4c(N)cccc4c(c23)C1=O`, the figures for the negative logarithm of the IC50 (pIC50) in experiment [1] and in experiment [2] were 5.02 and 4.69, respectively.

In the case of `CN(C)CCN1C(=O)c2cccc3cc4cc(O)ccc4c(c23)C1=O`, the negative-log IC50 (pIC50) in experiment [1] stood at 7.66; in experiment [2], 8.34.

As for `CN(C)CCN1C(=O)c2cccc3cc4cccc([N+](=O)[O-])c4c(c23)C1=O`, the pIC50 in experiment [1] was 6.65; in experiment [2], 7.13.

For the compound `CC(=O)Nc1cccc2c3c4c(cccc4cc12)C(=O)N(CCN(C)C)C3=O`, the results for the pIC50 in experiment [1] and in experiment [2] were 5.7 and 5.92, respectively.

For the compound `Cc1ccc2cc3ccccc3c3c2c1C(=O)N(CCN(C)C)C3=O`, the pIC50 in experiment [1] turned out to be 6.91; in experiment [2], 6.75.

As for `COc1ccc2cc3ccccc3c3c2c1C(=O)N(CCN(C)C)C3=O`, the pIC50 was determined as 6.3 in experiment [1] and 6.74 in experiment [2].

`CN(C)CCN1C(=O)c2cccc3cc4cccc(Cl)c4c(c23)C1=O`: the pIC50 stood at 5.05 in experiment [1] and 5.69 in experiment [2].

Turning to `CN(C)CCN1C(=O)c2cccc3cc4ccc(I)cc4c(c23)C1=O`, the negative logarithm of the IC50 (pIC50) in experiment [1] came to 6.75; in experiment [2], 6.2.

Turning to `CC(=O)Nc1ccc2cc3cccc4c3c(c2c1)C(=O)N(CCN(C)C)C4=O`, the pIC50 in experiment [1] was found to be 7.31; in experiment [2], 7.01.

On to `CN(C)CCN1C(=O)c2cccc3cc4c(Cl)cccc4c(c23)C1=O`, for which the values for the pIC50 in experiment [1] and in experiment [2] were 7.41 and 7.11, respectively.

Regarding `CN(C)CCN1C(=O)c2cccc3cc4cccc(N)c4c(c23)C1=O`, the negative-log IC50 (pIC50) in experiment [1] is 5.76; in experiment [2], 6.02.

With `CN(C)CCN1C(=O)c2c(Cl)ccc3cc4ccccc4c(c23)C1=O`, the pIC50 in experiment [1] was determined as 6.75; in experiment [2] it was 6.89.

For the compound `CN(C)CCN1C(=O)c2cccc3cc4ccc(-c5ccccc5)cc4c(c23)C1=O`, the negative-log IC50 (pIC50) in experiment [1] amounted to 6.46; in experiment [2] it was 5.73.

With `CN(C)CCN1C(=O)c2cccc3cc4ccc([N+](=O)[O-])cc4c(c23)C1=O`, the pIC50 in experiment [1] was determined as 7.64; in experiment [2], 7.44.

`Cc1ccc2cc3cccc4c3c(c2c1)C(=O)N(CCN(C)C)C4=O`: the negative-log IC50 (pIC50) in experiment [1] is 7.17; in experiment [2], 7.09.

As for `CN(C)CCN1C(=O)c2cccc3cc4cc(N)ccc4c(c23)C1=O`, the values for the pIC50 in experiment [1] and in experiment [2] were 7.85 and 7.35, respectively.

For `CCOc1ccc2cc3cccc4c3c(c2c1)C(=O)N(CCN(C)C)C4=O`, the pIC50 in experiment [1] was 7.2; in experiment [2], 7.12.

As to `CC(=O)Nc1ccc2c3c4c(cccc4cc2c1)C(=O)N(CCN(C)C)C3=O`, the figures for the negative-log IC50 (pIC50) in experiment [1] and in experiment [2] were 7.89 and 7.22, respectively.

In the case of `CN(C)CCN1C(=O)c2cccc3cc4ccc(F)cc4c(c23)C1=O`, the results for the pIC50 in experiment [1] and in experiment [2] were 8.17 and 7.8, respectively.

`CN(C)CCN1C(=O)c2cccc3cc4ccc(N)cc4c(c23)C1=O`: the pIC50 in experiment [1] came out at 7.7; in experiment [2], 7.2.

As for `CN(C)CCN1C(=O)c2c(O)ccc3cc4ccccc4c(c23)C1=O`, the pIC50 in experiment [1] was 4.83; in experiment [2], 5.12.
